Assays:
[1] = system: hESC-derived pre-OLs (MBP reporter cells); test: Maturation of MBP-Tomato reporter pre-OLs under normoxia or after 48 h hypoxia (in vitro white matter injury model); format: cell-based, human; settings: for proportion of MBP+ Tomato+ mature oligodendrocytes: noggin 100 ng/ml, DAPT 1 μM; for proportion of MBP Tomato co-expressing oligodendrocytes: PD0325901 0.25 μM alone or combined, vs vehicle (FIG. 13)
Description: (§1) Human ESCs (HES1 passages 21 to 42 with a normal karyotype) were cultured as described. hESC colonies were picked up by means of collagenase IV (1 mg/ml; GIBCO-BRL, Gaithersburg, MD) and placed into ultralow adherent culture dishes (Thermo Scientific Nunc HydroCell) to favor sphere aggregation. Spheres were cultured in NDM media consisting of Neural Differentiation Medium (Gibco) and N2B27 supplements with 20 ng/ml FGF-2. Spheres were first patterned with the dual-SMAD inhibitors LDN193189 (1 μM, Cayman Chemical, Ann Arbor, MI) and SB431542 (5 μM, SB; PeproTech Inc, Rocky Hill, NJ) until day 4 when SB431542 was withdrawn and the spheres were further cultured for additional 10 days in the presence LDN193189 and FGF-2. At day 14, the spheres were caudalized and ventralized using 0.1 μM all-trans retinoic acid and 0.5 μM purmorphamine, respectively (PeproTech Inc, Rocky Hill, NJ). At day 35, spheres were switched to modified SATO media, consisting of DMEM/F12, 10 ng/ml biotin, 60 ng/ml progesterone, 16 μg/ml putrescine, 20 μg/ml human insulin, 100 μg/ml apotransferrin, 5 ng/ml sodium selenite, 100 μg/ml bovine serum albumin (BSA), 60 μg/ml N-acetyl cysteine and 2 μg/ml forskolin. The medium was further supplemented with 20 ng/ml FGF-2, 0.5 μM Purmorphamine, 5 ng/ml NT3 and 200 nM ascorbic acid. Media was changed every 3 days for 6-7 weeks. For differentiation, spheres were dissected into small clusters mechanically and plated onto poly-D-lysine/laminin-coated plates and cultured in modified SATO media supplemented with 5 ng/ml NT3, 10 ng/ml IGF-1, 60 ng/ml T3, 100 ng/ml noggin and 200 nM ascorbic acid for 2-4 weeks.
To block Notch signaling, the γ-secretase inhibitor, DAPT (N—[N-(3,5-difluorphenacetyl)-L-alanyl]-S-phenylglycine t-butyl ester), PeproTech Inc, Rocky Hill, NJ) was added freshly every other day to the cells to a concentration of 1 μM. To block MEK/ERK signaling, PD0325901 (PeproTech Inc, Rocky Hill, NJ) was added freshly every other day to the cells to a concentration of 0.25-0.5 μM.
Immunocytochemistry: Cells were fixed in 4% paraformaldehyde for 20 min, washed with PBS, blocked in blocking solution (5% donkey serum, 0.2% Triton X-100 in PBS) for 1 hour, and incubated for 2 hours with primary antibodies mouse anti-Olig2 (Millipore Corporation diluted 1:150) and mouse anti-Nkx-2.2 (Developmental Studies Hybridoma Bank, diluted 1:100). After washing, cells were incubated with secondary antibody, donkey anti-mouse Alexa-488 (Life Technologies, Inc.), for 1 hour before being mounted in VECTASHIELD™ mounting medium. For O4 staining, cells were blocked in blocking solution (5% donkey serum in DMEM/F12) for 1 hour, and incubated with mouse-anti O4 antibody (R&D System, diluted 1:100) for 2 hours. After washing, cells were fixed in 4% paraformaldehyde for 20 min, and incubated with secondary antibody, donkey anti-mouse Alexa-488 or Alexa-555 (Life Technologies, Inc.), for 1 hour before being mounted in VECTASHIELD™ mounting medium. For MBP staining, after fixation cells were washed with PBS+0.01% saponin, blocked in blocking solution (5% goat serum, 0.01% saponin in DMEM/F12) for 1 hour, and incubated with rat anti-MBP antibody (R&D System 1:100) for 2 hours. After washing, cells were incubated with secondary antibody, goat anti-rat antibody (Jackson laboratories, 1:100) for 1 hour before being mounted in VECTASHIELD™ mounting medium.
Plasmid construction and gene targeting: Oligonucleotide encoding the MBP-targeting sgRNA was custom ordered (hy.labs), hybridized and ligated into the BbsI restriction site of pX330-U6-Chimeric-BB-CBh-hSpCas9 vector (Addgene #42230). Homology arms from the human mbp locus were amplified from genomic DNA isolated from HES1 cells by nested PCR (5′ arm: Chr18:74692386-74693344, 3′ arm: Chr18:74691209-74692367). The PCR products was digested and ligated into PNTKV-2A-Tomato donor plasmid. Correct construction of each expression cassette was verified by sequence analysis. […]

[2] = system: MEK-ERK signalling; settings: mouse; earlier stage of differentiation of the oligodendroglial lineage; cited from earlier work
[3] = system: hESC-derived pre-OL; test: Terminal maturation of hESC-derived pre-oligodendrocytes into MBP+ oligodendrocytes (MBP immunostaining); format: cell-based, human; settings: pre-OL on laminin
Description: as §1, with “2-4 weeks. […] To block MEK/ERK signaling, PD0325901 (PeproTech Inc, Rocky Hill, NJ) was added freshly every other day to the cells to a concentration of 0.25-0.5 μM. […]” for “2-4 weeks.”

[4] = system: EAE mice; test: ICV delivery in chronic EAE, Biozzi mouse model of Multiple Sclerosis; format: in vivo, Biozzi ABH mice; settings: ICV mini-osmotic pump, 5 μg per day, vs vehicle-treated EAE mice
Text: The Biozzi mouse model of Multiple Sclerosis: Biozzi ABH mice have genetic tendency to develop autoimmune diseases, and are used for many autoimmune models. The experimental autoimmune model in Biozzi mice is induced by immunization with spinal cord homogenate. Typically, mice develop an acute relapse, followed by remission, and after that a relapsing and progressive course of disease, resembling human multiple sclerosis (MS). […] In the chronic phase of EAE there are typical immunopathological features resembling progressive MS, such as meningeal infiltrates and development of tertiary lymphoid-like tissue, partial closing of the blood-brain-barrier, and reduction in lesion activity with increase in astrogliosis. Therefore, this model is considered one of the most clinical-relevant experimental models of MS. EAE was induced in Biozzi mice. Briefly, mice were inoculated subcutaneously at day 0 and day 7 in both hind flanks with 1 mg spinal cord homogenate emulsified in complete Freund's adjuvant supplemented with 3 μg M. Butyricum. Mice were monitored and scored daily in a blinded manner as follows: 0=normal, 1=limp tail, 2=impaired righting reflex, 3=hind-limb paresis; 4=complete hind-limb paralysis and 5=moribund/death. 10-14 days after the second relapse the mice were divided into two prospective experimental groups. […]

[5] = system: oligodendrocyte progenitors (OLPs) isolated from mouse cerebral cortex; settings: cited from earlier work
[6] = system: oligodendroglial differentiation; settings: cited from earlier work
[7] = hypoxia 48 hours, then 3 weeks normoxia, vs vehicle

C[C@H](NC(=O)Cc1cc(F)cc(F)c1)C(=O)N[C@H](C(=O)OC(C)(C)C)c1ccccc1 [DAPT, N—[N-(3,5-difluorphenacetyl)-L-alanyl]-S-phenylglycine t-butyl ester]
proportion of MBP+ Tomato+ mature oligodendrocytes [1, 7]: increased differentiation
proportion of MBP+ Tomato+ mature oligodendrocytes ([1]; normoxia, 3 weeks, vs vehicle): did not increase

O=C(NOC[C@H](O)CO)c1ccc(F)c(F)c1Nc1ccc(I)cc1F [PD0325901]
oligodendrocyte differentiation [2]: augment oligodendrocyte differentiation
proportion of MBP Tomato co-expressing oligodendrocytes ([1]; hypoxia exposed, one week following hypoxia): increased proportion
MBP+ Tomato+-expressing oligodendrocytes ([1]; hypoxia-exposed cultures, 0.25 μM or 0.5 μM for one week): marked increase
branching of processes of MBP+ Tomato+ oligodendrocytes ([1]; hypoxia-exposed cultures, one week): marked increase
number of MBP Tomato co-expressing oligodendrocytes ([1]; hypoxia-exposed, 0.25 μM, one week following hypoxia, vs vehicle (FIG. 11)): increased number
number of MBP Tomato co-expressing oligodendrocytes ([1]; hypoxia-exposed, 0.5 μM, one week following hypoxia, vs vehicle (FIG. 12)): increased number
proportion of MBP+ Tomato+ oligodendrocytes ([1]; normoxia, 0.25 μM or 0.5 μM for one week, vs vehicle): significant increase
number of MBP Tomato co-expressing oligodendrocytes ([1]; normoxia, 0.25 μM, one week, vs vehicle (FIG. 11)): increased number
number of MBP Tomato co-expressing oligodendrocytes ([1]; normoxia, 0.5 μM, one week, vs vehicle (FIG. 12)): increased number
proportion of MBP Tomato co-expressing oligodendrocytes ([1]; normoxia, one week): increased proportion
branching of the processes of MBP+ oligodendrocytes ([1]; normoxia, one week): significantly enhanced
effect on pre-OLs maturation compared with noggin or DAPT ([1]; one week of treatment vs two-three weeks with noggin and/or DAPT): more prominent
culture period after which maturation was obtained [3]: 1 week
branching of processes of MBP+ cells ([3]; 1 week): enhanced branching
proportion of MBP mature oligodendrocytes / maturation into MBP+ cells ([3]; DAPT+noggin 2 weeks, PD0325901 1 week, vs vehicle): highly significant augmentation
disease course: mean cumulative score of disease ([4]; 28 days from implantation): significantly milder
disease course: final clinical score at day of termination ([4]; 28 days): significantly milder

Oc1nc(-c2ccc(C(F)(F)F)cc2)nc2c1CSCC2 [XAV939]
differentiation of oligodendrocyte progenitors (OLPs) [5]: promote differentiation

B1: noggin: BMP antagonist (protein, UniProt Q13253 28-232, looked up)
Noggin: QHYLHIRPAPSDNLPLVDLIEHPDPIFDPKEKDLNETLLRSLLGGHYDPGFMATSPPEDRPGGGGGAAGGAEDLAELDQLLRQRPSGAMPSEIKGLEFSEGLAQGKKQRLSKKLRRKLQMWLWSQTFCPVLYAWNDLGSRFWPRYVKVGSCFSKRSCSVPEGMVCKPSKSVHLTVLRWRCQRRGGQRCGWIPIQYPIISECKCSC
oligodendroglial differentiation and maturation [6]: enhance oligodendroglial differentiation and maturation
proportion of MBP+ Tomato+ mature oligodendrocytes [1, 7]: substantial increase
proportion of MBP+ Tomato+ mature oligodendrocytes ([1]; normoxia, 3 weeks, vs vehicle): substantial increase

Source: patent US12661329B2, “Methods of generating oligodendrocytes” (Hadasit Medical Research Services and Development Ltd., priority 2019, dated 2026)
